Measurements from PMC8303886, “Polyphenylglyoxamide-Based Amphiphilic Small Molecular Peptidomimetics as Antibacterial Agents with Anti-Biofilm Activity” (International Journal of Molecular Sciences, 2021).
Several values for one entry are separate records, joined by “and”; a condition that tells them apart may be missing. Equal entries are not always repeated. Where two headings read alike, the source gives them in different places.

What was measured:
S. aureus (SA38) [1] = test: Minimum inhibitory concentration (MIC) assay against S. aureus; format: cell-based, Staphylococcus aureus; settings: Staphylococcus aureus, S. aureus SA38; read-out: MIC S. aureus
S. aureus (SA38) [2] = settings: previously reported, cited from earlier work
E. coli (K12) [3] = tested on: E. coli (K12); design: method as in PMID 32947921; settings: previously reported, cited from earlier work
P. aeruginosa (PAO1) [4] = tested on: P. aeruginosa (PAO1); design: method as in PMID 32947921; settings: previously reported, cited from earlier work
E. coli (K12) [5] = test: Minimum inhibitory concentration (MIC) assay against E. coli; format: cell-based; settings: Escherichia coli
P. aeruginosa (PAO1) [6] = test: Minimum inhibitory concentration (MIC) assay against P. aeruginosa; format: cell-based; settings: Pseudomonas aeruginosa
[7] = tested on: pre-established S. aureus biofilms; test: Disruption of pre-established S. aureus biofilms (crystal violet assay); format: cell-based, Staphylococcus aureus
Protocol: As bacterial biofilms are one of the major challenges in treating bacterial infection, the ability of the synthesised peptidomimetics to disrupt pre-established biofilms was investigated.
(§1) Bacterial cultures (S. aureus and E. coli) were cultured in MHB at 37 °C with shaking at 120 rpm for 24 h. The resulting bacterial culture was washed twice with MHB with centrifugation after each wash. The bacterial solution was then diluted with fresh MHB to a turbidity of OD660 = 0.1 in MHB (equivalent to 10^8 colony forming unit (CFU)/mL of bacteria), followed by diluting to 10^6 CFU/mL in MHB. A total of 200 µL of the bacterial solution was dispensed to wells in a flat-bottom 96-well plate (Costar). The biofilm was then grown in the plate at 37 °C for 24 h. After incubation, loosely bound cells were washed away with 1× phosphate-buffered saline (PBS, pH 7.4). The biofilms were then supplemented with different concentrations of peptidomimetics dissolved in DMSO and incubated at 37 °C with shaking at 120 rpm for a further 24 h. Biofilms adhered on the plate substratum were quantified, using crystal violet staining as described previously. The experiment was performed in triplicate.

[8] = tested on: pre-established E. coli biofilms; test: Disruption of pre-established E. coli biofilms (crystal violet assay); format: cell-based, Escherichia coli
Protocol: as §1

[9] = tested on: MRC-5 normal human lung fibroblasts; test: MTT cytotoxicity assay; format: cell-based; settings: Homo sapiens, MRC5, 72 h, 72 h drug incubation, read-out: IC50 against MRC-5 normal human lung fibroblasts
Protocol: The IC50 values of the tested peptidomimetics were determined from a dose-response curve. […] The therapeutic indices for each tested peptidomimetic against Gram-positive S. aureus and Gram-negative E. coli were calculated by dividing the IC50 value against human cells by the corresponding MIC value (Table 2).
The toxicity of the peptidomimetics against normal human lung fibroblasts MRC-5 cells was measured, using an MTT (3-(4,5-dimethylthiazol-2-yl)-2,5-diphenyltetrazolium bromide) (Sigma Aldrich, St. Louis, MO, USA) colorimetric assay. The cells were cultured in minimal essential medium (MEM, Invitrogen) containing 10% foetal bovine serum (FBS). The cells were maintained at 37 °C in 5% CO2 as an adherent monolayer and was passaged upon reaching confluence by standard cell culture techniques. MRC-5 cells were seeded at 5000 cells/well in 96-well plates to ensure full confluence (quiescence) and left overnight to adhere to the plate wells. The adherent cells were treated with 1–500 μM of compounds by dissolving in DMSO and serially diluting with media. TY-01 was used as the positive control. The final concentration of DMSO was 0.5% (v/v). After the 72 h drug incubation, […] stock MTT solution (5 mg/mL) was added, and the cells were incubated for another 3.5–4 h. The MTT solution containing media was carefully aspirated without displacing the purple crystals from the bottom, and […] acid-isopropanol was added to all wells and mixed slowly by shaking with an orbital shaker to dissolve the dark blue crystals. […] The determination of IC50 values was performed using GraphPad Prism 7 (GraphPad, San Diego, CA, USA). Each experiment was performed in triplicate and was repeated in three independent experiments.

[10] = tested on: S. aureus cytoplasmic membrane; test: Cytoplasmic membrane permeability assay (diSC3-5 dye release); format: cell-based, Staphylococcus aureus; settings: 1× and 2× MIC, read up to 15 min
From the text: This dye readily partitions into and aggregates in bacterial cell membranes, quenching its own fluorescence. However, structural damage to the bacterial cell membrane causes a loss in the membrane potential, which results in the leakage of dye from the bacterial cell membrane into the medium and an increase in fluorescence intensity. By detecting changes in fluorescence intensity, the integrity of the bacterial cytoplasmic membrane can be monitored.
Membrane potential sensitive dye diSC3–5 (3,3′-dipropylthiadicarbocyanine iodide), which penetrates inside bacterial cells depending on the membrane potential gradient of the cytoplasmic membrane, was used to determine the bacterial cytoplasmic membrane permeability following the procedure previously described with slight modification. Bacteria (S. aureus) were incubated in MHB with shaking at 37 °C for 16 h. After incubation, the bacteria were washed with 5 mM HEPES, supplemented with 20 mM glucose at pH 7.2 and diluted in the same buffer to an OD600 0.05–0.06 (equivalent to a final concentration of 10^7 CFU/mL bacteria). The diSC3–5 dye was added at 4 μM to the bacterial suspension. […] Fluorescence due to the release of dye was measured with a FLUOstar Omega (BMG Labtech) microplate reader at 5 min intervals at an excitation wavelength of 621 nm and an emission wavelength of 670 nm.

[11] = highest concentration tested 250 μM
[12] = 4× MIC, 24 h treatment (32 μM for 17c)

SMILES	MIC (S. aureus (SA38) [1])	melting point	MIC (E. coli (K12) [5])	MIC (P. aeruginosa (PAO1) [6]; [11])	disruption of pre-established S. aureus biofilms ([7]; 1× MIC, 24 h treatment)	IC50 [9]	further results
CCCCCCCCCCCCCCCCS(=O)(=O)Nc1ccc(-c2ccccc2)cc1C(=O)C(=O)NCCCN(C)C [Compound 12c, N-(3-(Dimethylamino)propyl)-2-(4-(hexadecylsulfonamido)-[1,1′-biphenyl]-3-yl)-2-oxoacetamide]	> 250 µM and > 153 µg/mL	76.7 to 79.4 °C	–	–	–	–	–
CCCCCCCCS(=O)(=O)Nc1ccc(-c2ccccc2)cc1C(=O)C(=O)NCCC[N+](C)(C)C [Compound 16c]	–	–	–	–	–	–	MIC S. aureus (S. aureus (SA38) [2]; listed as 2, 16c): 16 μM and 10 μg/mL; MIC S. aureus (S. aureus (SA38) [2]; listed as 2): 16 µM; MIC S. aureus (S. aureus (SA38) [2]): 10 µg/mL; MIC E. coli (E. coli (K12) [3]; listed as 2, 16c): 32 μM and 21 μg/mL; MIC E. coli (E. coli (K12) [3]; listed as 2): 32 µM; MIC P. aeruginosa (P. aeruginosa (PAO1) [4]; listed as 2, 16c): 125 μM and 80 μg/mL; MIC P. aeruginosa (P. aeruginosa (PAO1) [4]): 125 μM and 80 μg/mL
CCCCCCCCCCCCS(=O)(=O)Nc1ccc(Br)cc1C(=O)C(=O)NCCC[N+](C)(C)C.[I-] [Compound 17b, 3-(2-(5-Bromo-2-(dodecylsulfonamido)phenyl)-2-oxoacetamido)-N,N,N-trimethylpropan-1-aminium iodide]	8 µM and 5.6 µg/mL	–	32 µM and 22 µg/mL	> 250 µM	20–36%	18.3 µM and 12.9 µg/mL	MIC (P. aeruginosa (PAO1) [6]): > 176 mg/L; disruption of pre-established S. aureus biofilms [7, 12]: 38%; disruption of pre-established E. coli biofilms ([8]; 2× MIC, 24 h treatment (64 μM for 17c)): 31%
CCCCCCCCCCCCCCCCS(=O)(=O)Nc1ccccc1C(=O)C(=O)NCCC[N+](C)(C)C.[I-] [Compound 18a, 3-(2-(2-(Hexadecylsulfonamido)phenyl)-2-oxoacetamido)-N,N,N-trimethylpropan-1-aminium iodide]	8 µM and 5.4 µg/mL	–	> 250 µM	> 250 µM	20–36%	52.4 µM and 35.6 µg/mL	–
CCCCCCCCS(=O)(=O)Nc1ccc(-c2ccccc2)cc1C(=O)C(=O)NCCCNC(=N)N [Compound 33c]	–	–	–	–	–	–	MIC S. aureus (S. aureus (SA38) [2]): 8 μM and 4.4 μg/mL; MIC E. coli (E. coli (K12) [3]): 63 μM and 35 μg/mL; MIC P. aeruginosa (P. aeruginosa (PAO1) [4]): 63 μM and 35 μg/mL
CCCCCCCCS(=O)(=O)Nc1ccc(-c2ccc(-c3ccccc3)cc2)cc1C(=O)C(=O)NCCCNC(=N)N.Cl [Compound 33d, N-(3-Guanidinopropyl)-2-(4-(octylsulfonamido)-[1,1′:4′,1″-terphenyl]-3-yl)-2-oxoacetamide hydrochloride]	16 µM and 10 µg/mL	49.6 to 50.1 °C	–	–	–	16.9 µM and 10.6 µg/mL	–
CCCCCCCCCCCCS(=O)(=O)Nc1ccccc1C(=O)C(=O)NCCCNC(=N)N.Cl [Compound 34a, 2-(2-(Dodecylsulfonamido)phenyl)-N-(3-guanidinopropyl)-2-oxoacetamide hydrochloride]	8 µM and 4.3 µg/mL	70 to 72.8 °C	16 µM and 8.5 µg/mL	> 250 µM	20–36%	27.2 µM and 14.5 µg/mL	MIC (P. aeruginosa (PAO1) [6]): > 133 mg/L; disruption of pre-established S. aureus biofilms [7, 12]: 42%; disruption of pre-established E. coli biofilms ([8]; 1× and 2× MIC, 24 h treatment): unable to disrupt any pre-established E. coli biofilms; S. aureus cytoplasmic membrane disruption (increase in fluorescence intensity) [10]: most active compound at 2× MIC
CCCCCCCCCCCCS(=O)(=O)Nc1ccc(Br)cc1C(=O)C(=O)NCCCNC(=N)N.Cl [Compound 34b, 2-(5-Bromo-2-(dodecylsulfonamido)phenyl)-N-(3-guanidinopropyl)-2-oxoacetamide hydrochloride]	16 µM and 9.8 µg/mL	50 to 50.1 °C	> 250 µM and > 153 µg/mL	> 250 µM	20–36% and 36%	21.1 µM and 14.8 µg/mL	MIC (P. aeruginosa (PAO1) [6]): > 153 mg/L; disruption of pre-established S. aureus biofilms [7, 12]: 42%
CCCCCCCCCCCCS(=O)(=O)Nc1ccc(-c2ccccc2)cc1C(=O)C(=O)NCCCNC(=N)N.Cl [Compound 34c, 2-(4-(Dodecylsulfonamido)-[1,1′-biphenyl]-3-yl)-N-(3-guanidinopropyl)-2-oxoacetamide hydrochloride]	32 µM and 19 µg/mL	73.2 to 73.5 °C	–	–	–	–	–
CCCCCCCCCCCCCCCCS(=O)(=O)Nc1ccc(Br)cc1C(=O)C(=O)NCCCNC(=N)N.Cl [Compound 35b, 2-(5-Bromo-2-(hexadecylsulfonamido)phenyl)-N-(3-guanidinopropyl)-2-oxoacetamide hydrochloride]	> 250 µM and > 167 µg/mL	64.3 to 66.6 °C	–	–	–	–	–
CCCCCCCCCCCCCCCCS(=O)(=O)Nc1ccc(-c2ccccc2)cc1C(=O)C(=O)NCCCNC(=N)N.Cl [Compound 35c, N-(3-Guanidinopropyl)-2-(4-(hexadecylsulfonamido)-[1,1′-biphenyl]-3-yl)-2-oxoacetamide hydrochloride]	> 250 µM and > 166 µg/mL	74.5 to 77.1 °C	–	–	–	–	–
